pIC50: −log10 of the molar value.
Key:
[1] = target: T1, M-phase inducer phosphatase 1 (Homo sapiens, UniProt P30304); experiment: Inhibition of His-tagged Cdc25A expressed in the Escherichia coli BL21(DE3) using p-nitrophenyl phosphate as substrate for 80 mins by spectrophotometry
T1 sequence (P30304 whole entry): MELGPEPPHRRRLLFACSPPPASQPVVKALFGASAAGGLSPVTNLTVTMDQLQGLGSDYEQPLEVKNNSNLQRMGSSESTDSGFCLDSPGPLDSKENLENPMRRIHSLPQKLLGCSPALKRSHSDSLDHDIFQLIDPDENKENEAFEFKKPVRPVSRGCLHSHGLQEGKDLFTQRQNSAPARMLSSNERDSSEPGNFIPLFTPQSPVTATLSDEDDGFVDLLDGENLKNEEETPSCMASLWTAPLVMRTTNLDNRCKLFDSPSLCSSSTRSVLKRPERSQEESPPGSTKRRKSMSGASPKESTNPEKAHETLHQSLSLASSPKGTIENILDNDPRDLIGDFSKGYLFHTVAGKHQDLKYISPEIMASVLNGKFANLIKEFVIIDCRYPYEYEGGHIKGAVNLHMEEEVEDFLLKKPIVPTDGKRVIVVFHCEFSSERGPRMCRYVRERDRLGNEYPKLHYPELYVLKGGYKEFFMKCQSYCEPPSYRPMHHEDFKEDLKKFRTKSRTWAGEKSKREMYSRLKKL

[2] = target: T2, Polyunsaturated fatty acid 5-lipoxygenase (Homo sapiens, UniProt P09917); experiment: Inhibition of 5-LOX
T2 sequence (P09917 whole entry): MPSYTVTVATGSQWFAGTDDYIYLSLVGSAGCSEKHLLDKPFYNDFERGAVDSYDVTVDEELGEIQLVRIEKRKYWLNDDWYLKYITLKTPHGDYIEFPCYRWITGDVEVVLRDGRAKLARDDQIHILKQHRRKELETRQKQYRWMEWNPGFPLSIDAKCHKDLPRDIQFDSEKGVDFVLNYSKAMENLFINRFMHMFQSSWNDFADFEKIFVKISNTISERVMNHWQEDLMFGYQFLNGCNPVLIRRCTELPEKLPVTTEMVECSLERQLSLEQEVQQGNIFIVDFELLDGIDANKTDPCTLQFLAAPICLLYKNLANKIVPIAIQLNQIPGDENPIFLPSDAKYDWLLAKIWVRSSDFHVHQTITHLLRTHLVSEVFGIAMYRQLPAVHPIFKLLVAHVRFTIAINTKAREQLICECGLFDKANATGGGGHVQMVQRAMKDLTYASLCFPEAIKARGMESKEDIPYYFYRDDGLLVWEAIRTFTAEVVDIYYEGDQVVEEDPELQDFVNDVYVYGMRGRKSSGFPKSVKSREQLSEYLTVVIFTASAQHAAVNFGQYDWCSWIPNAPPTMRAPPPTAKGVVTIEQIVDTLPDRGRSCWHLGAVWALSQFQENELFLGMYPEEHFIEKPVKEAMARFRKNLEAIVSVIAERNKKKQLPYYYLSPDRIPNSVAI

SMILES	pIC50 [1]	pIC50 [2]
COC(=O)[C@@H]1[C@H]2C[C@H]3c4[nH]c5ccccc5c4CCN3C[C@@H]2CC[C@@H]1O [YOHIMBINE]	4.65	–
CC(c1ccc(OCc2ccccc2)cc1)N(O)C(N)=O (centres undefined)	–	6.44
COC1(c2cccc(COc3ccc4ccccc4c3)c2)CCOCC1	–	5.82
c1ccc(COc2ccc3ccccc3c2)cc1	–	5.12

Reference: ChEMBL document CHEMBL2150911, “Charting, navigating, and populating natural product chemical space for drug discovery” (J Med Chem, 2012)
